From ChEMBL document CHEMBL1155845, “Novel terphenyls and 3,5-diaryl isoxazole derivatives endowed with growth supporting and antiapoptotic properties” (J Med Chem, 2008) come the findings set out here.

Experiment [1] concerns HL-60. Kind of experiment: Antiapoptotic activity in human HL60 cells after 72 hrs in serum free medium relative to control. The experiment is classed as functional.
For experiment [2], the system named is HL-60. Kind of experiment: Growth inhibition of human HL60 cells at greater than 10 uM after 48 hrs by trypan blue assay. Type of experiment: functional, cell-based.
Experiment [3] has as its system HL-60. Kind of experiment: Enhancement of human HL60 cells growth at 2.5 uM after 72 hrs in serum free medium. Type of experiment: functional, cell-based.
Experiment [4] concerns HL-60. Kind of experiment: Antiproliferative activity against human HL60 cells after 72 hrs in serum free medium. The experiment is classed as functional.
Experiment [5] relates to HL-60. Kind of experiment: Enhancement of human HL60 cells growth at less than 10 uM after 48 hrs by trypan blue assay. Type of experiment: functional, cell-based.
The subject of experiment [6] is HL-60. Kind of experiment: Enhancement of human HL60 cells growth at 1 uM after 72 hrs in serum free medium. The experiment is classed as functional, cell-based.
The subject of experiment [7] is HL-60. Kind of experiment: Enhancement of human HL60 cells growth assessed as promotion of G1 to S transition at 2.5 uM after 24 hrs by flow cytometry. The experiment is classed as functional, cell-based.
In experiment [8] the test system is HL-60. Kind of experiment: Inhibition of daunorubicin-induced apoptosis in human HL60 cells at 2.5 uM after 48 hrs. The experiment is classed as functional, cell-based.
Experiment [9] has as its system HL-60. Kind of experiment: Enhancement of human HL60 cells growth at 5 uM after 72 hrs in serum free medium. Type of experiment: functional, cell-based.
The test system of experiment [10] is HL-60. Kind of experiment: Antiapoptotic activity in human HL60 cells at 2.5 to 5 uM after 72 hrs in serum free medium relative to control. The experiment is classed as functional.
The test system of experiment [11] is HL-60. Kind of experiment: Growth inhibition of human HL60 cells at 2.5 uM after 72 hrs in serum free medium. The experiment is classed as functional, cell-based.
Experiment [12] deals with HL-60. Kind of experiment: Growth inhibition of human HL60 cells at 5 after 72 hrs in serum free medium. Type of experiment: functional, cell-based.
Experiment [13] has as its system HL-60. Kind of experiment: Growth inhibition of human HL60 cells after 48 hrs by trypan blue assay. Type of experiment: functional, cell-based. Particulars: HL-60, 48 h.

Active and inactive are the calls of the source. The rule behind the calls is not given here.

As usually defined, the IC50 is the point on the concentration scale where inhibition reaches its midpoint.

`COc1cc(-c2ccc(-c3ccc(C(=O)O)cc3)cc2)cc(OC)c1OC` gave an Activity in the experiment with HL-60 [1] of 18%.

In the experiment with HL-60 [1], `COc1cc(-c2cccc(-c3ccc(C(=O)O)cc3)c2)cc(OC)c1OC` gave an Activity of 17%.

In the case of `O=C(O)c1ccc(-c2cccc(-c3ccc(O)c(C45CC6CC(CC(C6)C4)C5)c3)c2)cc1`, the result with HL-60 [2] was Active.

Consider `O=[N+]([O-])c1ccc(-c2cc(-c3ccc(O)c(C45CC6CC(CC(C6)C4)C5)c3)on2)cc1`, for which the result with HL-60 [3], in the experiment with HL-60 [2], in the experiment with HL-60 [5] and in the experiment with HL-60 [6] was Active. In addition, in the experiment with HL-60 [4], the “growth inhibition (GI)” value is on record as 70%.

`O=[N+]([O-])c1ccc(-c2cc(-c3ccc(O)c(C45CC6CC(CC(C6)C4)C5)c3)no2)cc1`: the outcome with HL-60 [2], in the experiment on HL-60 [7], with HL-60 [8], with HL-60 [5] and in the experiment with HL-60 [9] was Active. In addition, the “growth inhibition (GI)” value in the experiment on HL-60 [4] turned out to be 70%. The compound further came in with an Activity with HL-60 [10] of 10%.

For `O=C(O)c1ccc(C2=NOC(c3ccc(O)c(C45CC6CC(CC(C6)C4)C5)c3)C2)cc1` (stereo not drawn), the outcome in the experiment with HL-60 [2], in the experiment with HL-60 [11], in the experiment with HL-60 [5] and in the experiment on HL-60 [12] was Active. Also, in the experiment with HL-60 [4], the “growth inhibition (GI)” value is given as 70%.

In the case of `O=C(O)c1ccc(-c2ccccc2-c2ccc(O)c(C34CC5CC(CC(C5)C3)C4)c2)cc1`, the IC50 with HL-60 [13] was determined as 8 µM.

On to `O=C(O)c1ccc(-c2cc(-c3ccc(O)c(C45CC6CC(CC(C6)C4)C5)c3)on2)cc1`, for which, in the experiment on HL-60 [13], the IC50 was 3 µM.

For `O=C(O)c1ccc(-c2ccc(-c3ccc(O)c(C45CC6CC(CC(C6)C4)C5)c3)cc2)cc1`, the outcome in the experiment with HL-60 [2] was Active.
